This note sets out measurements from patent US8669346B2, “Bone marrow targeting peptides” (Case Western Reserve University, priority 2010, dated 2014).

Data set [1] relates to bone marrow. The data set is described as follows: in vivo phage display screening; sequencing of phage plaques after the 5th round of injection. The conditions noted are these: for L. Leg (Non-IRR) / R. Leg (IRR) / Lung: number of sequenced plaques with this sequence; for L. Leg (Non-IRR): bone marrow of non-irradiated left leg; for L. Leg (Non-IRR) / R. Leg (IRR): after last injection; for Sequence copy number C BM: control bone marrow; for Sequence copy number C BM / Sequence copy number Irr BM: 20 plaques per organ isolate; for Sequence copy number Irr BM: irradiated bone marrow; for Sequence copy number Lung: 20 plaques per organ isolate (Table III); for R. Leg (IRR): bone marrow of irradiated right leg; for Lung: after last injection (Table II). On the set-up: species or system C57BU6 mice. Here is the method:
FIG. 2 illustrates schematic view of a phage screening strategy in accordance with an aspect of the application. The entire procedure was repeated 5 times to eliminate non-specific phage. On the fifth extraction, phage plaques were isolated from multiple organs and individually collected, expanded and sequenced.
(§1) C57BU6 mice had their right leg irradiated then, 24 h later, a phage library was injected and allowed to circulate, bone marrow was then harvested and the phage pool isolated. Phage were amplified and injected into the next mouse, and this process repeated a total of five times. The phage pool was then analysed from irradiated and non-irradiated legs and the sequences determined. Individual phage were then amplified, injected into irradiated mice and tissue distribution assessed. Table 1 lists the different peptides that came out of the sequencing from plaques plated after the last injection.
The screening methodology employed for isolating bone marrow-binding peptide sequences via phage display is illustrated in FIG. 2. Included in our screening strategy was the idea of obtaining some bone marrow-binding peptides that had high affinity for irradiated bone marrow, which, although not a required feature for targeting UCB cells to marrow, could be useful for engraftment into hosts where radiation treatment is part of the conditioning regimen. After the 5th round of phage injections, phage was isolated from lungs and from irradiated and non-irradiated bone marrow and sequenced (20 plaques per organ isolate).

The test system of data set [2] is bone marrow. The data set is described as follows: distribution of individual phage injected into mice whose right leg was irradiated (FIG. 1). In kind it is in vivo. Here is the method:
FIG. 1 illustrates the distribution of individual phage injected into mice whose right leg was irradiated. The amount of phage was normalized to tissue mass.
as §1

In the next data set the test system is spleen. Put plainly: isolated phage injected into whole body irradiated mice. In kind it is in vivo.
For data set [3], the system named is bone marrow. Put plainly: phage playoff screen, phage titer (PFU) per gram of tissue (FIG. 3). In kind it is in vivo. The conditions noted are these: equimolar phage injected, single mouse. Here is the method:
FIG. 3 illustrates a chart showing the results of a phage “playoff screen” where equimolar amounts of phage were injected into a mouse and plaque forming units (PFU) quantified.
We conducted a “playoff screen” to confirm bone marrow-targeting specificity. To perform a Playoff Screen, selected phage, along with a randomly selected phage from the pre-selected phage pool, were injected at equi-molar amounts into irradiated and non-irradiated mice, the bone marrows extracted, weighed and assayed for phage titer per gram of tissue; an example of the results of a Playoff Screen is shown in FIG. 3. While the data shown here are from only a single mouse, the results were important in several aspects.

The test system of data set [4] is bone marrow. Put plainly: spleen and bone marrow-targeting of UCB cells coated with RKV-CCP, qRT-PCR of human ALU sequences (FIG. 5). In kind it is in vivo, mice. The conditions noted are these: 3 weeks post injection. The text has this:
FIG. 5 illustrates a chart showing ALU qRT-PCR quantification of human UCB cell numbers. The y-axis indicates human cell numbers calculated from a human cell standard curve. RKV=RKV-coated human UCB cells; NC=Non-coated human UCB cells; P=Plasma-injected. ρ values are from Student's t test between RKV and NC samples. The squares indicate the individual values for the RKV samples.
Preliminary spleen and bone marrow-targeting of UCB cells has already been conducted with the RKV peptides as a CCP molecule (RKV-CCP). UCB cells were isolated using a discontinuous Percol gradient, red blood cells were lysed with ammonium chloride, and the cells were incubated at 37° C. for a total of 10 min with RKV-CCP molecule (30 μg/ml), centrifuged, washed and stored at 4° C. until injected. Progenitors from two separate UCB units were coated and tested. Mice were sub-lethally irradiated with 250 cGy and injected with 1.0×10^8 RKV-CCP coated or non-coated UCB cells, or plasma-only control; 2 mice per group per UCB sample for a total of 4 mice per injection group. Bone marrow, spleen and blood were collected 3 weeks post injection. qRT-PCR was then conducted to assess human ALU sequences. The number of human cells found in the marrow was derived from a qRT-PCR standard curve of known amounts of human cell mixed with murine […] cells. […] Plasma-injected mice had essentially no signal.
In general terms: Quantitative PCR measures a nucleic acid by following its amplification.

Data set [5] deals with UCB CD34+ cells. Put plainly: MTT assay, toxicity on coated cells. In kind it is cell-based, human. The following applies: data not shown. Here is the method:
(§2) The CCP molecule has three primary components: One, the targeting peptide sequence; two, a linker sequence containing a biotinylated amino acid; and, three a lipid moiety for integration into the cell membrane (FIG. 4). Once synthesized, all CCP molecules are tested for purity and molecular weight using HPLC and mass spectroscopy (located in the Puget Sound Blood Center); for their ability to coat UCB CD34+ cells using flow cytometry, for any toxicity effects on progenitors using MTT and hematopoietic colony forming unit (CFU) assays.
(§3) Sequences from this initial round of selection (CALFFV (SEQ ID NO:1), RAPGGET (SEQ ID NO:41), RKVVVGS (SEQ ID NO: 4) and control RSR) were contracted out to commercial vendors for synthesis into CCPs. One single-hit sequence from bone marrow, RKVVVGS (SEQ ID NO:4), termed “RKV”, was successfully synthesized, purified, and its molecular weight validated by mass spectroscopy.
For orientation: Tetrazolium assays rely on reduction of a dye to a coloured formazan, in cell work by metabolically active cells.

Data set [6] has as its system UCB CD34+ cells. The data set is described as follows: cell coating by CCP, flow cytometry using FITC-labeled Streptavidin. It is filed as cell-based, human. How it is done:
as §2, §3

“Also recorded” adds a separate entry of the source. Where no end group is shown, it is not given here.

With GDRRDSR (listed as Homo sapiens), in the data set on bone marrow [1], the “L. Leg (Non-IRR)” value was 1.
In the case of RKVVVGS (listed as Homo sapiens), in the data set on bone marrow [1], the “Sequence copy number C BM” value was found to be 0, the “Sequence copy number Irr BM” value was determined as 1, the “Sequence copy number Lung” value came out at 0 and the “R. Leg (IRR)” value amounted to 1. Also, in the data set with bone marrow [2] (in words), the “binding in irradiated legs” value is recorded as “marked increase in binding” and the “binding in non-irradiated legs” value is “minimal binding”. For the same substance, in the data set with bone marrow [2] (individual phage, right leg irradiated, phage normalized to tissue mass), the “signal in the irradiated leg relative to non-irradiated leg” value was “approximately 15 ×”. The binding to spleen entry in the data set with spleen is listed as “highly increased binding”.
With “SSYALI (listed as Homo sapiens) [SS-YALI]”, in the data set on bone marrow [1], the “Sequence copy number C BM” value was 1, the “Sequence copy number Irr BM” value stood at 5, the “Sequence copy number Lung” value stood at 0 and the “R. Leg (IRR)” value is reported as 5.
GIRVMEK (listed as Homo sapiens): in the data set on bone marrow [1], the “Sequence copy number C BM” value turned out to be 0, the “Sequence copy number Irr BM” value came out at 2, the “Sequence copy number Lung” value turned out to be 0 and the “R. Leg (IRR)” value worked out at 2.
As for RRSGKLL (listed as Homo sapiens), the “L. Leg (Non-IRR)” value with bone marrow [1] stood at 2.
For QARNGGR (listed as Homo sapiens), in the data set with bone marrow [1], the “Sequence copy number C BM” value is 0, the “Sequence copy number Irr BM” value is 0 and the “Sequence copy number Lung” value is 1. Also, the “bone marrow specificity in the sequencing screen” value with bone marrow [1] (in words) is “no bone marrow specificity”. Also, in the data set with bone marrow [3], the “phage levels / binding in lung” value is listed as “high levels; also recorded: highest level”, the “phage levels / titers in bone marrow” value is given as “low levels” and the “titers in the lung compared with bone marrow” value is recorded as “greater”.
Consider SIGHRRE (listed as Homo sapiens), for which, in the data set on bone marrow [1], the “Sequence copy number C BM” value worked out at 4, the “Sequence copy number Irr BM” value stood at 0, the “Sequence copy number Lung” value was found to be 0 and the “L. Leg (Non-IRR)” value is given as 1. Besides, in the data set with bone marrow [3], the “phage levels / titers in bone marrow” value is listed as “minimal”.
On to LDSSLFN (listed as Homo sapiens), for which, in the data set on bone marrow [1], the “L. Leg (Non-IRR)” value is listed as 1.
On to “EGGNEV (listed as Homo sapiens) [EGGN-EV]”, for which, in the data set on bone marrow [1], the “L. Leg (Non-IRR)” value was 1 and the Lung is 1.
For the substance “GRRGGAKPAVASRR (listed as Homo sapiens) [GRR-GGAKPAVASRR]”, the “L. Leg (Non-IRR)” value with bone marrow [1] was determined as 1.
RAANTAR (listed as Homo sapiens): the Lung in the data set on bone marrow [1] is recorded as 1.
The same measure, in the same setting: with “FSGRRLVSPRPHPSN (listed as Homo sapiens)” the figure was 1; with VVRAK (listed as Homo sapiens), 1; with GMKGVQL (listed as Homo sapiens), 1.
On to GPGLKEM (listed as Homo sapiens), for which the “L. Leg (Non-IRR)” value in the data set with bone marrow [1] came out at 4.
For “RGLQTGLEGSAWLLECGRA (listed as Homo sapiens)”, in the data set on bone marrow [1], the “R. Leg (IRR)” value stood at 1.
In the data set on bone marrow [1], “DRN-RSA (DRNRSA; listed as Homo sapiens)” yielded a Lung of 1.
Consider “VSKRDL (listed as Homo sapiens) [V-SKRDL]”, for which, in the data set on bone marrow [1], the “R. Leg (IRR)” value came to 1.
Regarding GRELRGQ (listed as Homo sapiens), the “L. Leg (Non-IRR)” value with bone marrow [1] amounted to 1.
In the case of RQDGRHG (listed as Homo sapiens), in the data set with bone marrow [1], the “Sequence copy number C BM” value was 0, the “Sequence copy number Irr BM” value stood at 1, the “Sequence copy number Lung” value is given as 0 and the “R. Leg (IRR)” value is recorded as 1.
DDQSVSRKLAAALE (listed as Homo sapiens): in the data set on bone marrow [1], the “Sequence copy number C BM” value is 0, the “Sequence copy number Irr BM” value amounted to 3, the “Sequence copy number Lung” value is listed as 0 and the “R. Leg (IRR)” value is on record as 3. In addition, the “increased signal in irradiated leg” value in the data set with bone marrow [2] (individual phage, irradiated versus non-irradiated leg, in words) was “exception”.
Consider “TS-QLWC (TSQLWC; listed as Homo sapiens)”, for which the “L. Leg (Non-IRR)” value in the data set with bone marrow [1] is reported as 4.
Regarding “VGVRIGGSLRPHSSN (listed as Homo sapiens)”, the Lung in the data set on bone marrow [1] was found to be 1.
For “DLAHDALLAWGPPSINCLTLGAP (listed as Homo sapiens)”, the “R. Leg (IRR)” value in the data set on bone marrow [1] was determined as 1.
Consider VGPSVGP (listed as Homo sapiens), for which, in the data set on bone marrow [1], the “L. Leg (Non-IRR)” value worked out at 1.
SVAPLRR (listed as Homo sapiens): in the data set on bone marrow [1], the Lung stood at 1.
On to KSMARHR (listed as Homo sapiens), for which, in the data set on bone marrow [1], the “L. Leg (Non-IRR)” value came to 1 and the Lung is listed as 1.
Take “CGYREVSSAALE (listed as Homo sapiens) [-CGYREVSSAALE]”: the “R. Leg (IRR)” value in the data set on bone marrow [1] came to 1.
The substance DGRSSRG (listed as Homo sapiens) registered a Lung with bone marrow [1] of 1.
“KVSD-SL (KVSDSL; listed as Homo sapiens)” registered a Lung in the data set with bone marrow [1] of 1.
Substance “GGL-RGGKLAAALE (GGLRGGKLAAALE; listed as Homo sapiens)” showed a Lung in the data set with bone marrow [1] of 1.
LSTRVER (listed as Homo sapiens) came in with a Lung in the data set with bone marrow [1] of 1.
Take CALFFV (listed as Homo sapiens): in the data set with bone marrow [1], the “Sequence copy number C BM” value came to 0, the “Sequence copy number Irr BM” value is reported as 4, the “Sequence copy number Lung” value was 1 and the “R. Leg (IRR)” value is reported as 4. For the same substance, the Lung in the data set on bone marrow [1] stood at 1.
GGNANRR (listed as Homo sapiens) came in with a Lung in the data set on bone marrow [1] of 1.
Same read-out and setting: in the case of “VFSGVEVSSRPHSSN (listed as Homo sapiens)” it was 1; in that of VSGSVR (listed as Homo sapiens), 1; in that of QNDSASG (listed as Homo sapiens), 1.
As for “RKV: cell coating peptide: RKVVVGS targeting sequence, spacer with biotin-labeled amino acid, lipid moiety for membrane insertion (also: spacer with biotin-labeled amino acid, end not given here, lipid moiety for membrane insertion, end not given here; listed as Homo sapiens)”, in the data set on bone marrow [4] (1.0×10^8 UCB cells coated at 30 μg/ml, 250 cGy, ρ value 0.09), the “human-derived cells in bone marrow compared to control non-coated cells” value is approximately 7 ×. Besides, the “UCB cell numbers in bone marrow compared to spleen” value in the data set with bone marrow [4] is on record as “approximately 6 times”. The “UCB cell numbers in the spleen compared to uncoated UCB cells” value with bone marrow [4] (statistically significant) was “enhanced”. Moreover, in the data set on UCB CD34+ cells [5], the “toxic effects on coated cells (MTT)” value was “no toxic effects”. Moreover, in the data set with UCB CD34+ cells [6], the “ability to coat cells” value is listed as “able to coat cells efficiently”.
As for RAPGGET (listed as Homo sapiens), in the data set on bone marrow [1], the “Sequence copy number C BM” value came to 0, the “Sequence copy number Irr BM” value worked out at 1 and the “Sequence copy number Lung” value came to 0.
“GRGDR-R (GRGDRR; listed as Homo sapiens)” yielded a Lung in the data set on bone marrow [1] of 1.
The substance TSLKDDR (listed as Homo sapiens) had a Lung in the data set with bone marrow [1] of 1.
For LSTNRFV (listed as Homo sapiens), the “L. Leg (Non-IRR)” value with bone marrow [1] is given as 1.
